Data from patent US11661397B2, “1,4-disubstituted imidazole derivative” (Sumitomo Pharma Co., Ltd., priority 2015, dated 2023).

Assays:
[1] = system: HCT-116 cells; assay: Inhibition of sphere-forming ability of cancer cells (Test Example 1); assay type: cell-based; conditions: Homo sapiens, 96 h; HCT-116 spheres, non-adherent, serum-free, 4 days, CellTiter-Glo; read-out: Sphere IC50 value (concentration for 50% inhibition of cell proliferation)
Protocol: (§1) HCT-116 cells were available from the American Type Culture Collection (ATCC). HCT-116 cells were cultured at 37° C. and 5% CO2 using the McCoy's 5a medium containing 10% fetal bovine serum (FBS) and 1% penicillin/streptomycin. […] The test compounds were added into each well to adjust the final concentration of DMSO to 0.1%, and the cells were cultured for 4 days.

[2] = system: HCT-116 cells; assay: Test for inhibiting sphere-forming ability of cancer cells in the presence of BSA (Test Example 2); assay type: cell-based; conditions: Homo sapiens, 96 h; HCT-116 spheres, 5% bovine serum albumin (BSA), 4 days, CellTiter-Glo; read-out: Sphere IC50 value (concentration for 50% inhibition of cell proliferation)
Protocol: as §1

SMILES	IC50 [1]	IC50 [2]
O=C(Nc1cn(Cc2cc(F)c(F)c(F)c2)cn1)c1cnc(CO)c(Cl)c1 [Example 41, 5-Chloro-6-(hydroxymethyl)-N-[1-(3,4,5-trifluorobenzyl)-1H-imidazol-4-yl]nicotinamide]	51 nM	59 nM
O=C(Nc1cn(Cc2cc(F)c(F)c(F)c2)cn1)c1csc(CO)n1 [Example 8]	77 nM	578 nM
O=C(Nc1cn(Cc2cc(F)c(F)c(F)c2)cn1)c1cnc(CO)c(Br)c1 [Example 38]	61 nM	81 nM
C=C(CO)c1ccc(C(=O)Nc2cn(Cc3cccc(C(F)(F)F)c3)cn2)cn1 [Example 15]	710 nM	5770 nM
O=C(Nc1cn(Cc2cccc(C(F)(F)F)c2)cn1)c1cnc(CO)c(Br)c1 [Example 32]	< 10 nM	68 nM
O=C(Nc1cn(Cc2cc(F)cc(F)c2)cn1)c1cnc(CO)c(C(F)F)c1 [Example 79, N-[1-(3,5-difluorobenzyl)-1H-imidazol-4-yl]-5-(difluoromethyl)-6-(hydroxymethyl)nicotinamide]	80 nM	60 nM
O=C(Nc1cn(Cc2ccc(Cl)c(F)c2)cn1)c1cnc(CO)c(C(F)F)c1 [Example 66, N-[1-(4-chloro-3-fluorobenzyl)-1H-imidazol-4-yl]-5-(difluoromethyl)-6-(hydroxymethyl)nicotinamide]	70 nM	60 nM
COc1cc(Cn2cnc(NC(=O)c3cnc(CO)c(C(F)F)c3)c2)cc(C(F)(F)F)c1 [Example 65, 5-(difluoromethyl)-6-(hydroxymethyl)-N-{1-[3-methoxy-5-(trifluoromethyl)benzyl]-1H-imidazol-4-yl}nicotinamide]	630 nM	660 nM
O=C(Nc1cn(Cc2ccc(Cl)c(Cl)c2)cn1)c1cnc(CO)c(C(F)F)c1 [Example 71, N-[1-(3,4-dichlorobenzyl)-1H-imidazol-4-yl]-5-(difluoromethyl)-6-(hydroxymethyl)nicotinamide]	< 10 nM	60 nM
O=C(Nc1cn(Cc2cccc(C(F)(F)F)c2)cn1)c1cnc(CO)c(C(F)(F)F)c1 [Example 19, 6-(hydroxymethyl)-5-(trifluoromethyl)-N-{1-[3-(trifluoromethyl)benzyl]-1H-imidazol-4-yl}nicotinamide]	70 nM	403 nM
O=C(Nc1cn(Cc2cccc(Br)c2)cn1)c1cnc(CO)c(C(F)F)c1 [Example 58, N-[1-(3-bromobenzyl)-1H-imidazol-4-yl]-5-(difluoromethyl)-6-(hydroxymethyl)nicotinamide]	70 nM	80 nM
O=C(Nc1ccc(CO)nc1)c1cn(Cc2cc(F)c(F)c(F)c2)cn1 [Example 22, N-[6-(Hydroxymethyl)pyridin-3-yl]-1-(3,4,5-trifluorobenzyl)-1H-imidazole-4-carboxamide]	< 10 nM	< 10 nM
O=C(Nc1ccc2nc(CO)ccc2c1)c1cn(Cc2cc(F)c(F)c(F)c2)cn1 [Example 23, N-[2-(hydroxymethyl)quinolin-6-yl]-1-(3,4,5-trifluorobenzyl)-1H-imidazole-4-carboxamide]	79 nM	84 nM
O=C(/C=C/c1cnc(CO)c(Cl)c1)Nc1cn(Cc2cccc(C(F)(F)F)c2)cn1 [Example 52]	50 nM	410 nM
O=C(Nc1cn(Cc2cccc(C(F)(F)F)c2)cn1)c1cnc(C(O)CO)c(Br)c1 (stereo not shown) [Example 29]	633 nM	3500 nM
Cc1cccc(Cn2cnc(NC(=O)c3cnc(CO)c(C(F)F)c3)c2)c1 [Example 63, 5-(difluoromethyl)-6-(hydroxymethyl)-N-[1-(3-methylbenzyl)-1H-imidazol-4-yl]nicotinamide]	690 nM	600 nM
CC(C)(O)c1ccc(C(=O)Nc2cn(Cc3cccc(C(F)(F)F)c3)cn2)cn1 [Example 5, 6-(2-Hydroxypropan-2-yl)-N-{1-[3-(trifluoromethyl)benzyl]-1H-imidazol-4-yl}nicotinamide]	8400 nM	–
CCc1cc(C(=O)Nc2cn(Cc3cccc(C(F)(F)F)c3)cn2)cnc1CO [Example 44, 5-Ethyl-6-(hydroxymethyl)-N-{1-[3-(trifluoromethyl)benzyl]-1H-imidazol-4-yl}nicotinamide]	758 nM	5110 nM
O=C(Nc1cn(Cc2cccc(Cl)c2)cn1)c1ccc(CO)nc1 [Example 11]	56 nM	–
O=C(Nc1cn(Cc2cccc(C(F)(F)F)c2)cn1)c1ccc(/C=C/CO)nc1 [Example 14]	6040 nM	–
COCc1ccc(C(=O)Nc2cn(Cc3cccc(C(F)(F)F)c3)cn2)cn1 [Example 9]	5040 nM	–
Cc1nc(CO)ccc1C(=O)Nc1cn(Cc2cccc(C(F)(F)F)c2)cn1 [Example 34]	7390 nM	–

Continued, values first:

IC50 [1]	IC50 [2]	SMILES
629 nM	605 nM	O=C(COc1ccc(CO)nc1)Nc1cn(Cc2cc(F)c(F)c(F)c2)cn1 [Example 2]
75 nM	619 nM	O=C(Nc1cn(Cc2cccc(Cl)c2)cn1)c1cnc(CO)c(C(F)F)c1 [Example 55, N-[1-(3-chlorobenzyl)-1H-imidazol-4-yl]-5-(difluoromethyl)-6-(hydroxymethyl)nicotinamide]
30 nM	350 nM	O=C(Nc1cn(Cc2cccc(C(F)(F)F)c2)cn1)c1ccc(CO)cn1 [Example 1, 5-(Hydroxymethyl)-N-{1-[3-(trifluoromethyl)benzyl]-1H-imidazol-4-yl}picolinamide]
3650 nM	6970 nM	CC(O)c1ccc(C(=O)Nc2cn(Cc3cccc(C(F)(F)F)c3)cn2)cn1 (stereo not shown) [Example 6, 6-(1-Hydroxyethyl)-N-{1-[3-(trifluoromethyl)benzyl]-1H-imidazol-4-yl}nicotinamide]
653 nM	767 nM	O=C(Nc1cn(Cc2cccc(C(F)(F)F)c2)cn1)c1cc(CO)on1 [Example 21]
3760 nM	6110 nM	Cc1cc(CO)ncc1C(=O)Nc1cn(Cc2cccc(C(F)(F)F)c2)cn1 [Example 35]
380 nM	670 nM	O=C(Nc1cn(Cc2ccc(C(F)(F)F)c(F)c2)cn1)c1cnc(CO)c(C(F)F)c1 [Example 74, 5-(difluoromethyl)-N-{1-[3-fluoro-4-(trifluoromethyl)benzyl]-1H-imidazol-4-yl}-6-(hydroxymethyl)nicotinamide]
148 nM	603 nM	O=C(Nc1cn(Cc2ccc(F)c(F)c2)cn1)c1cnc(CO)c(C(F)F)c1 [Example 54, N-[1-(3,4-difluorobenzyl)-1H-imidazol-4-yl]-5-(difluoromethyl)-6-(hydroxymethyl)nicotinamide]
< 10 nM	30 nM	O=C(Nc1cn(Cc2ccc(F)c(Cl)c2)cn1)c1cnc(CO)c(C(F)F)c1 [Example 61, N-[1-(3-chloro-4-fluorobenzyl)-1H-imidazol-4-yl]-5-(difluoromethyl)-6-(hydroxymethyl)nicotinamide]
70 nM	630 nM	O=C(/C=C/c1ccc(CO)nc1)Nc1cn(Cc2cccc(C(F)(F)F)c2)cn1 [Example 51]
53 nM	313 nM	O=C(Nc1cn(Cc2cccc(C(F)(F)F)c2)cn1)c1cnc(CO)cn1 [Example 20]
< 10 nM	50 nM	O=C(Nc1cn(Cc2cc(Cl)cc(Cl)c2)cn1)c1cnc(CO)c(C(F)F)c1 [Example 75, N-[1-(3,5-dichlorobenzyl)-1H-imidazol-4-yl]-5-(difluoromethyl)-6-(hydroxymethyl)nicotinamide]
61 nM	696 nM	NCc1ccc(C(=O)Nc2cn(Cc3cccc(C(F)(F)F)c3)cn2)cn1 [Example 24, 6-(Aminomethyl)-N-{1-[3-(trifluoromethyl)benzyl]-1H-imidazol-4-yl}nicotinamide ditrifluoroacetate]
< 10 nM	50 nM	O=C(Nc1cn(Cc2ccc(F)c(C(F)(F)F)c2)cn1)c1cnc(CO)c(C(F)F)c1 [Example 57, 5-(difluoromethyl)-N-{1-[4-fluoro-3-(trifluoromethyl)benzyl]-1H-imidazol-4-yl}-6-(hydroxymethyl)nicotinamide]
< 10 nM	60 nM	Cc1cc(C(=O)Nc2cn(Cc3cccc(C(F)(F)F)c3)cn2)cnc1CO [Example 42, 6-(Hydroxymethyl)-5-methyl-N-{1-[3-(trifluoromethyl)benzyl]-1H-imidazol-4-yl}nicotinamide]
69 nM	563 nM	O=C(Nc1cn(Cc2cccc(C(F)(F)F)c2)cn1)c1cnc(CO)c(F)c1 [Example 30, 5-Fluoro-6-(hydroxymethyl)-N-{1-[3-(trifluoromethyl)benzyl]-1H-imidazol-4-yl}nicotinamide]
7 nM	7 nM	O=C(Nc1cn(Cc2cc(F)c(F)c(F)c2)cn1)c1ccc(CO)nc1 [Example 10, 6-(Hydroxymethyl)-N-[1-(3,4,5-trifluorobenzyl)-1H-imidazol-4-yl]nicotinamide]
< 10 nM	< 10 nM	O=C(Nc1cn(Cc2cccc(C(F)(F)F)c2)cn1)c1cnc(CO)c(Cl)c1 [Example 31]
5600 nM	6510 nM	C=Cc1cc(C(=O)Nc2cn(Cc3cccc(C(F)(F)F)c3)cn2)cnc1CO [Example 43, 5-Ethenyl-6-(hydroxymethyl)-N-{1-[3-(trifluoromethyl)benzyl]-1H-imidazol-4-yl}nicotinamide]
9800 nM	–	COc1cc(C(=O)Nc2cn(Cc3cccc(C(F)(F)F)c3)cn2)cnc1CO [Example 33]
824 nM	–	CNCc1ccc(C(=O)Nc2cn(Cc3cccc(C(F)(F)F)c3)cn2)cn1 [Example 26, 6-[(Methylamino)methyl]-N-{1-[3-(trifluoromethyl)benzyl]-1H-imidazol-4-yl}nicotinamide]
